Several values for one entry are separate records, joined by “and”; a condition that tells them apart may be missing. Identical values can stand only once.
Legend:
[1] = Serum biotin levels after 20 mg biotin ingestion, free biotin ELISA; details: per volunteer
Description: Baseline serum samples were obtained from 5 apparently healthy adult volunteers (4 male, 1 female) by antecubital venous blood draw in BD brand Vacutainer™ 10 mL red top tubes. […] Blood was allowed to clot for 1 hour at RT and centrifuged at 2,000 rpm for 15 min in a Beckman Allegra 6R tabletop centrifuge. For each time point, serum samples from each volunteer was pooled, mixed for 15 min at RT, aliquoted into 1.2 mL aliquots in 2 mL cryo-vials, and frozen at −80° C.
Samples above the kit's measuring range were diluted with the kit's sample dilution buffer.

[2] = clinical; details: human, in vivo, serum biotin level, LC-MS/MS

What does the source list for O=C(O)CCCC[C@@H]1SC[C@@H]2NC(=O)N[C@@H]21 [Biotin]?
Biotin Concentration 1-hr ([1]; 1 hr after 20 mg biotin ingestion): 440 ng/mL; Biotin Concentration 3-hr ([1]; 3 hr after 20 mg biotin ingestion): 221 ng/mL and 289 ng/mL and 184 ng/mL and 113 ng/mL and 183 ng/mL; Biotin Concentration 6-hr ([1]; 6 hr after 20 mg biotin ingestion): 60 ng/mL and 65 ng/mL and 76 ng/mL; Biotin Concentration 8-hr ([1]; 8 hr after 20 mg biotin ingestion): 48 ng/mL and 64 ng/mL and 65 ng/mL; Biotin Concentration 24-hr ([1]; 24 hr after 20 mg biotin ingestion): 29 ng/mL and 26 ng/mL and 32 ng/mL and 24 ng/mL; Biotin Concentration 0-hr ([1]; baseline before 20 mg biotin ingestion): 1.1 ng/mL and 0.1 ng/mL and 0.3 ng/mL and 0.4 ng/mL (2×); concentration at 1 h ([1]; both, human, in vivo, 20 mg, Biotin Concentration 1-hr, 1 hr after 20 mg biotin ingestion): 531 ng/mL; concentration at 6 h ([1]; both, human, in vivo, 20 mg, Biotin Concentration 6-hr, 6 hr after 20 mg biotin ingestion): 107 ng/mL; concentration at 8 h ([1]; both, human, in vivo, 20 mg, Biotin Concentration 8-hr, 8 hr after 20 mg biotin ingestion): 60 to 107 ng/mL; concentration at 24 h ([1]; both, human, in vivo, 20 mg, Biotin Concentration 24-hr, 24 hr after 20 mg biotin ingestion): 24 to 32 ng/mL; concentration at 6 h ([2]; 20 mg, all 5 volunteers): 17 to 35 ng/mL; concentration at 8 h ([2]; 20 mg, 8 hours, 4 out of 5 volunteers >15 ng/mL): 16 to 28 ng/mL; concentration at 6 h ([2]; 200 mg, 200 mg dose (so in the source)): 95 to 347 ng/mL

From patent US20220260557A1, “METHODS FOR DEPLETION AND ENRICHMENT” (priority 2018, published 2022)
